Measurements taken from patent US20230149409A1, “TREATMENT OF HUMAN PAPILLOMAVIRUS-ASSOCIATED CANCERS BY PD-L1 INHIBITORS” (priority 2021, published 2023).

Assays:
[1] = molecular target: T1, PD-L1 on CD14+ cells in human whole blood (Homo sapiens, UniProt Q9NZQ7); test: PD-L1 whole blood internalization assay; assay type: cell-based; conditions: 1 ng/mL interferon γ, CD14+ gated, 24 hour
T1 construct: Cells were gated on CD14+ (BD Biosciences) and PD-L1 expression determined by mean fluorescence intensity; host or cells: CD14+ cells in normal human whole blood, stimulated with human interferon gamma
T1 sequence (Q9NZQ7 19-290): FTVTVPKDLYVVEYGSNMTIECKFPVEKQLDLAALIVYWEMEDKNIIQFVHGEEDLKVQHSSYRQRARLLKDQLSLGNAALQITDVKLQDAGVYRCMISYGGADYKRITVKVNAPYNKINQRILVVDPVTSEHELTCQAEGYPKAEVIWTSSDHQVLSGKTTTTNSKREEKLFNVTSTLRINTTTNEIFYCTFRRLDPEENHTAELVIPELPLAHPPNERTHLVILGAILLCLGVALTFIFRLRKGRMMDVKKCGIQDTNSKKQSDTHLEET
Description: PD-L1 Whole Blood Internalization Assay
To determine PD-L1 internalization in human whole blood, normal human blood (Biological Specialty Corp, Colmar. PA) was incubated in the presence or absence of a concentration range of test compounds and 1 ng/mL human interferon γ (R&D Systems Inc. Minn. MN) in a 96 well “2 mL Assay Block” (Corning, Corning NY) for 18-20 hours at 37 °C. Blood was then stained with PD-L1 (MIH1, eBioscience; or BD Biosciences San Jose, CA), CD14 (Life Technologies, Carlsbad, CA) for 30 minutes in the dark at room temperature. Whole Blood/red cells were lysed/fixed (lysis buffer BD Biosciences) for 5 minutes at 37 °C in the dark and then centrifuged at 1600 RPM for 5 minutes. Cells were resuspended in Stain Buffer (BD Bioscience, San Jose, CA) and transferred into 96 well round bottom plates (Coming). Cells were gated on CD14+ (BD Biosciences) and PD-L1 expression determined by mean fluorescence intensity (MFI) (BD LSRFortessa® X-20). IC50 determination was performed by fitting the curve of compound percent inhibition versus the log of the compound concentration using the GraphPad Prism 7.0 software.

[2] = molecular target: T2, PD-⅟PD-L1 (recombinant human PD-L1 protein and human PD-1 protein) (Homo sapiens, UniProt Q9NZQ7); test: Homogeneous Time-Resolved Fluorescence (HTRF) PD-1/PD-L1 binding assay; conditions: 3 nM PD1, 10 nM PD-L1, 25° C., PBS pH 7.4
T2 construct: Recombinant human PD-L1 protein (19-238) with a His-tag at the C-terminus; purchased AcroBiosystems PD1-H5229 (PD-L1); PD1-H5257 (PD-1)
T2 sequence (Q9NZQ7 19-238): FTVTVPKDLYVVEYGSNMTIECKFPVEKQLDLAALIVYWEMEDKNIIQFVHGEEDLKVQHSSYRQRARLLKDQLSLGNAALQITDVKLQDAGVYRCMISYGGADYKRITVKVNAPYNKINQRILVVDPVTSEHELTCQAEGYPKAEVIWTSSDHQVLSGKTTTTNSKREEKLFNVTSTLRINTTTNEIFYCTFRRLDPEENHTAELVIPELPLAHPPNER
Description: Homogeneous Time-Resolved Fluorescence (HTRF) PD-⅟PD-L1 Binding Assay
The assays were conducted in a standard black 384-well polystyrene plate with a final volume of 20 uL. Inhibitors were first serially diluted in DMSO and then added to the plate wells before the addition of other reaction components. The final concentration of DMSO in the assay was 1%. The assays were carried out at 25° C. in the PBS buffer (pH 7.4) with 0.05% Tween-20 and 0.1% BSA. […] PD-L1 and PD-1 proteins were diluted in the assay buffer and 10 uL was added to the plate well. Plates were centrifuged and proteins were preincubated with inhibitors for 40 minutes. The incubation was followed by the addition of 10 uL of HTRF detection buffer supplemented with Europium cryptate-labeled anti-human IgG (PerkinElmer-AD0212) specific for Fc and anti-His antibody conjugated to SureLight®-Allophycocyanin (APC, PerkinElmer-AD0059H). […] Final concentrations in the assay were - 3 nM PD1, 10 nM PD-L1, 1 nM europium anti-human IgG and 20 nM anti-His-Allophycocyanin. IC50 determination was performed by fitting the curve of percent control activity versus the log of the inhibitor concentration using the GraphPad Prism 5.0 software.

[3] = system: PD-L1 (PD-L1 aAPC/CHO-K1 cells, Jurkat-PD-1-NFAT effector cells); test: Nuclear Factor of Activated T-cells (NFAT) assay; assay type: cell-based; conditions: Cricetulus griseus; PD-L1 aAPC/CHO-K1 + Jurkat-PD-1-NFAT cells, 24 hours
Description: Nuclear Factor of Activated T-cells (NFAT) Assay
PD-L1 aAPC/CHO-K1cells (Promega) were maintained in F-12 medium with addition of 10% FBS, 200 µg/mL Hygromycin B, 250 µg/mL Geneticin (G418). […] The culture media of PD-L1 aAPC/CHO-K1 cells were first replaced with assay medium (RPMI1640 medium with 1% FBS). The PD-L1 aAPC/CHO-K1cells were then added in a white 384-well white clear bottom assay plate (CELLCOAT® Tissue Culture Plates, Greiner Bio-One) at 8000 per well in 10 uL assay medium. […] 5 uL compounds in the assay medium were transferred to the cells with 0.4% DMSO in the final assay at 2 µM. After removing the culture media, 10,000 Jurkat-PD-1-NFAT effector cells in 5 µL assay medium was dispensed into each well. The assay plate was incubated at 37° C., 5% CO2 for 24 hours. […] After 8 minutes incubation at room temperature, luminescence was read at with Pherastar microplate reader (BMG Labtech). The fold of induction (FOI) was calculated based on the ratio of luminescence normalized to the DMSO wells within each assay plate. The maximum percentage of induction was reported based on the ratio between the highest FOI of each compound and the maximum FOI of control compound within each assay plate. Wells with DMSO were served as the negative controls and wells containing control compound with the highest FOI were used as positive controls. EC50 determination was performed by fitting the curve of percent control activity versus the log of the compound concentration using the GraphPad Prism 6.0 software.

[4] = system: PD-L1 (U2OS/PD-L1 cells, Jurkat-PD-1-SHP cells); test: Src Homology Region 2 Domain-containing Phosphatase (SHP) assay; assay type: cell-based; conditions: Homo sapiens; U2OS/PD-L1 + Jurkat-PD-1-SHP cells, 2 hours
Description: Example 1B. Src Homology Region 2 Domain-containing Phosphatase (SHP) Assay
U2OS/PD-L1 cells (DiscoveRx Corporation) were maintained in McCoy’s 5A medium with addition of 10% FBS, 0.25 µg/mL Puromycin. After removing the culture media, the cell medium was replaced with assay medium (RPMI1640 medium with 1% FBS). The U2OS/PD-L1 cells were then added in 384-well black clear bottom assay plate (CELLCOAT® Tissue Culture Plates, Greiner Bio-One) at 5000 cells per well in 20 uL assay medium. Test compounds were prepared by serial dilution in DMSO and 125 nL compound were first transferred to the 384 REMP plate well (Thermofisher) by ECHO liquid handler (Labcyte) followed with addition of 27.5 uL assay medium. 5 µL/well compounds in the assay medium were transferred to the cell plate with 0.05% DMSO in the final assay at 0.25 µM. Jurkat-PD-1-SHP cells (DiscoveRx Corporation) were cultured in RPMI1640 medium supplemented with 10% FBS, 250 µg/mL Hygromycin B, 500 µg/mL G418. After the replacement of culture media with assay medium, 5,000 Jurkat-PD-1-SHP cells in 20 µL were dispensed into each well. The assay plate was incubated at 37° C., 5% CO2 for 2 hours before 2.5 uL PathHunter reagent 1 (DiscoveRx Corporation) were added to each well. The assay plate was shaken for 1 min at 350 rpm in the dark followed with addition of 10 uL PathHunter reagent 2 (DiscoveRx Corporation). Chemiluminescent signal was recorded with TopCount reader (Perkin Elmer) after incubation at room temperature for 1 hour. Wells with DMSO were served as the positive controls and wells containing no cells were used as negative controls. IC50 determination was performed by fitting the curve of percentage of control activity versus the log of the compound concentration using the GraphPad Prism 6.0 software.

SMILES | IC50 [1] [nM] | IC50 [2] [nM] | EC50 [3] [nM] | IC50 [4] [nM]
Cc1c(Nc2nc(C(F)F)nc3cc(CN4CC[C@@H](O)C4)cnc23)cccc1-c1cccc(-c2nc3cc(CN4CC[C@@H](C(=O)O)C4)cc(C#N)c3o2)c1C [Compound 25, (R)-1-((7-cyano-2-(3′-(2-(difluoromethyl)-7-(((R)-3-hydroxypyrrolidin-1-yl)methyl)pyrido[3,2-d]pyrimidin-4-ylamino)-2,2′-dimethylbiphenyl-3-yl)benzo [d]oxazol-5-yl)methyl)pyrrolidine-3-carboxylic acid] | < 100 | < 10 | < 100 | –
Cc1c(Nc2nccc3cc(CN4CC[C@H](O)C4)cnc23)cccc1-c1cccc(-c2nc3cc(CN4CC[C@H](C(=O)O)C4)cc(C#N)c3o2)c1C [Compound 3] | < 500 | – | < 100 | < 10
Cc1c(Nc2nccc3cc(CN4CC[C@H](O)C4)cnc23)cccc1-c1cccc(-c2nc3cc(CN4CC[C@@H](C(=O)O)C4)cc(C#N)c3o2)c1C [Compound 4, (R)-1-((7-cyano-2-(3′-(3-(((S)-3-hydroxypyrrolidin-1-yl)methyl)-1,7-naphthyridin-8-ylamino)-2,2′-dimethylbiphenyl-3-yl)benzo[d]oxazol-5-yl)methyl)pyrrolidine-3-carboxylic acid] | < 500 | – | < 100 | < 100
Cc1c(Nc2nc(C(F)F)nc3cc(CN4CC[C@](C)(O)C4)cnc23)cccc1-c1cccc(-c2nc3cc(CN4CCC(C(=O)O)CC4)cc(C#N)c3o2)c1C [Compound 28, (S)-1-((7-cyano-2-(3′-(2-(difluoromethyl)-7-((3-hydroxy-3-methylpyrrolidin-1-yl)methyl)pyrido[3,2-d]pyrimidin-4-ylamino)-2,2′-dimethylbipheiryl-3-yl)benzo[d]oxazol-5-yl)methyl)pipendine-4-carboxylic acid] | < 100 | < 10 | – | –
Cc1c(-c2nc3cc(CN4CCC(C(=O)O)CC4)cc(C#N)c3o2)cccc1-c1cccc(-c2nc3c(s2)CN(C(=O)CN(C)C)C3)c1C [Compound 6, 1-((7-cyano-2-(3′-(5-(2-(dimethylamino)acetyl)-5,6-dihydro-4H-pyrrolo [3,4-d]thiazol-2-yl)-2,2′-dimethylbiphenyl-3-yl)benzo[d]oxazol-5-yl)methyl)piperidine-4-carboxylic acid] | < 100 | – | < 100 | < 10
CCN(C)CC(=O)N1Cc2nc(-c3cccc(-c4cccc(Nc5nccc6cc(CN7CC[C@@H](C(=O)O)C7)cnc56)c4Cl)c3C)sc2C1 [Compound 13, (R)-1-((8-((2-chloro-3′-(5-(N-ethyl-N-methylglycyl)-5,6-dihydro-4H-pyrrolo[3,4-d]thiazol-2-yl)-2′-methyl-[1,1′-biphenyl]-3-yl)amino)-1,7-naphthyridin-3-yl)methyl)pyrrolidine-3-carboxylic acid] | < 100 | – | < 100 | < 10
Cc1c(-c2nc3c(s2)CN(C(=O)CN(C)C)C3)cccc1-c1cccc(-c2nc3c(s2)CN(C(=O)CN2CC[C@@H](O)C2)C3)c1C [Compound 14, (R)-2-(dimethylamino)-1-(2-(3′-(5-(2-(3-hydroaypyrrolidin-1-yl)acetyl)-5,6-dihydro-4H-pyrrolo[3,4-d]thiazol-2-yl)-2,2′-dimethylbipheiryl-3-yl)-4H-pyrrolo [3,4-d]thiazol-5(6H)-yl)ethanone] | – | – | < 500 | < 100
Cc1c(Nc2nccc3cc(CN4CC[C@@](C)(O)C4)cnc23)cccc1-c1cccc(NC(=O)c2nc3c(n2C)CCN(C[C@H]2CC[C@@H](C(=O)O)CC2)C3)c1Cl [Compound 11, cis-4-((2-(2-chloro-3′-(3-(((R)-3-hydroay-3-methylpyrrolidin-1-yl)methyl)-1,7-naphthyridin-8-ylamino)-2′-methylbiphenyl-3-ylcarbamoyl)-1-methyl-6,7-dihydro-1H-imidazo[4,5-c]pyridin-5(4H)-yl)methyl)cyclohexanecarboxylic acid] | < 100 | – | < 100 | < 10
Cc1c(Nc2nc(C(F)F)nc3cc(CN4CC[C@@](C)(O)C4)cnc23)cccc1-c1cccc(-c2nc3cc(CN4CCC(C(=O)O)CC4)cc(C#N)c3o2)c1C [Compound 27, (R)-1-((7-cyano-2-(3′-(2-(difluoromethyl)-7-((3-hydroxy-3-methylpyrrolidin-1-yl)methyl)pyrido[3,2-d]pyrimidin-4-ylamino)-2,2′-dimethylbipheiryl-3-yl)benzo[d]oxazol-5-yl)methyl)piperidine-4-caiboxylic acid] | < 100 | < 10 | – | –
Cc1c(Nc2nccc3cc(CN4CC[C@@H](O)C4)cnc23)cccc1-c1cccc(-c2nc3cc(CN4CC[C@H](C(=O)O)C4)cc(C#N)c3o2)c1C [Compound 5] | < 500 | – | < 100 | < 10
Cc1c(Nc2nc(C(F)F)nc3cc(CN4CC[C@@H](O)C4)cnc23)cccc1-c1cccc(-c2nc3cc(CN4CC[C@@](C)(C(=O)O)C4)cc(C#N)c3o2)c1C [Compound 26, (R)-1-((7-cyano-2-(3′-(2-(difluoromethyl)-7-(((R)-3-hydroxypyrrolidin-1-yl)methyl)pyrido[3,2-d]pyrimidin-4-ylamino)-2,2′-dimethylbipheiryl-3-yl)benzo[d]oxazol-5-yl)methyl)-3-methylpyrrolidine-3-carboxylic acid] | < 100 | < 10 | < 100 | –
